From US20110003796A1, “METHOD FOR THE TREATMENT OF PSYCHIC DISORDERS” (Consejo Nacional de Investigaciones Cientificas y Tecnicas …, priority 2009, published 2011)
Entries after “also recorded” stand apart in the source; their conditions may differ. Counter-ions that a name gives are not always drawn.

Legend:
rats [1] = assay: Forced swimming test (FST); type: in vivo, rat (male Wistar); settings: for climbing in FST / immobility in FST / swimming in FST: 16 days
Description: (§1) The experiments were carried out with male Wistar rats with a body weight of 200-386 g. Rats were kept in a cycle of 12 hours of light (8:00 a 20:00) and 12 hours of darkness with free access to water and food except during the tests. The rats were divided in four groups, housed in individual polyethylene cages of with three or four rats each (55×38×30 cm) and fed with standard diet for the controls (C) or diet supplemented with omega-3 fatty acids (ω3). The animals were used only once in each test. All tests were performed in agreement with the Guidelines for the Care and Use of Laboratory Animals provided by National Institutes of Health of United States of America.
The Fluoxetine Hydrochloride (FLX) and mirtazapine (MTZ) were administered intra-peritoneally (IP) in a volume equivalent to 1 cc/kg and were freshly prepared each morning. The FLX was dissolved in distilled water and MZT was solubilized in isotonic saline (0.9% NaCl) plus three or four drops of glacial acetic acid to dissolve this solution. […] All control rats were given injections of saline.
In all cases antidepressant drugs or the saline solution were given once a day for 16 days, the final injection was given 24 hours before the test session (FIGS. 6 and 18).
The omega-3 fatty acids were given as diet supplement in the food enriched with salmon oil for 16 days. Each 1000 mg of highly concentrated salmon oil contains about 30% of omega-3, from which 17% is EPA and 13% is DHA; therefore there were 40 mg of omega-3 fatty acids per gram of enriched food. Rats of the ω3 group received a dose of about 0.72 g/kg/day of omega-3 fatty acids.
The swimming sessions were carried out placing the rats in Plexiglas cylinders (46 cm of height and 20 cm of diameter) which had been previously filled with water (23-25° C.) to 30 cm from the bottom. All swimming sessions were performed between 12:00 and 18:00 hours.
Two sessions were performed: an initial pre-test for 15 minutes followed by a 5-minute test, after 16 days. The drugs were given between both sessions.
Rats were studied at 5-second intervals during the session of forced swimming session. At each interval of 5 seconds, the predominant behavior was assigned to one of the following categories: (1) immobility: flotation in water without fighting, only doing the necessary movements to keep the head out of the water; (2) swimming, making the movements of active swimming, plus the ones necessary to keep simply the head out of the water (i.e., moving around the cylinder); and (3) climbing, making active movements with fore hints out of the water, usually against walls. The scoring for each behavior was expressed as the total of records per session of 5 minutes.

rats [2] = assay: Open field test (locomotor activity); type: in vivo, rat (male Wistar)
Description: These studies were performed exactly the same way as the studies of FST had been carried. All rats that experimented the first day of FST (pre-test), received the different treatments during 16 days. On day 17 they were placed in the cage of open field (60×60×60 cm) with the floor divided in squares (15×15 cm). The tests were performed between 14:00 and 17:00 hours, illuminated with an electric bulb of 75 W and placed 75 cm above the floor of the cage, in a quiet room. The locomotion was measured by the number of squares they enter with the four legs (counts), over a period of 5 minutes. After withdrawing the animal, the open field was carefully cleaned with a damp wipe.

rats [3] = settings: cited from earlier work; for antidepressant effect in prior studies: FLX 1 mg/kg, MTZ 1 mg/kg; for effect on the FST in prior studies: FLX 10 mg/kg, MTZ 20 mg/kg, similar test conditions
[4] = Body weight gain during chronic treatment; type: in vivo, rat (male Wistar)
Description: Tests were performed to analyze the body weight gain during chronic treatments with antidepressants and/or omega-3 fatty acids.
as §1

[5] = fluoxetine 10 mg/kg ip and/or omega-3 0.72 g/kg
[6] = mirtazapine 20 mg/kg ip and/or omega-3 0.72 g/kg

SMILES: CNCCC(Oc1ccc(C(F)(F)F)cc1)c1ccccc1 (stereo not shown) [fluoxetine, Fluoxetine Hydrochloride]
- effect of treatment on behaviors in FST (rats [1]; fluoxetine 1 mg/kg ip alone, two-factor ANOVA): no effect of treatment with FLX
- climbing in FST (rats [1]; [5]): without modifying the behavioral levels of climbing
- immobility in FST (rats [1]; [5]): reduces immobility
- swimming in FST (rats [1]; [5]): increases swimming
- effect of treatment on the FST (rats [1]; fluoxetine sub-optimal doses lower than 1 mg/kg (0.1 and 0.5 mg/kg) alone): did not have any effect on the FST
- spontaneous locomotor activity in open field (rats [2]; fluoxetine 1 mg/kg and/or omega-3 0.72 g/kg): None of these treatments with antidepressant effects in the FST affected the levels of activity
- spontaneous locomotor activity in open field test (rats [2]; fluoxetine 10 mg/kg and/or omega-3 0.72 g/kg): None of these treatments with antidepressant effects in the FST affected the activity levels
- antidepressant effect in prior studies (rats [3]): not showing an antidepressant effect
- effect on the FST in prior studies (rats [3]): produce a more robust effect on the FST
- body weight ([4]; fluoxetine 10 mg/kg and/or omega-3 0.72 g/kg, vs control group): Body weight was significantly lower
- body weight gain ([4]; fluoxetine sub-optimal dose 1 mg/kg): Body weight gain was reduced although in a lesser extend

SMILES: CN1CCN2c3ncccc3Cc3ccccc3C2C1 (stereo not shown) [mirtazapine]
- climbing in FST (rats [1]; [6]): increase
- immobility in FST (rats [1]; [6]): significantly reduced the immobility
- swimming in FST (rats [1]; [6]): corresponding increase in the swimming
- time of immobility in FST (rats [1]; mirtazapine sub-optimal dose 1 mg/kg ip and/or omega-3 0.72 g/kg/day, vs control): did not significantly change the time of immobility
- spontaneous locomotor activity in open field (rats [2]; mirtazapine 1 mg/kg and/or omega-3 0.72 g/kg/day): did not interfere with the locomotor activity
- spontaneous locomotor activity in open field test (rats [2]; mirtazapine 20 mg/kg and/or omega-3 0.72 g/kg): did not interfere with the responses of locomotor activity
- antidepressant effect in prior studies (rats [3]): not showing an antidepressant effect
- effect on the FST in prior studies (rats [3]): produce a more robust effect on the FST
- body weight gain ([4]; mirtazapine 20 mg/kg and/or omega-3 0.72 g/kg, chronic): significantly reduced the body weight gain; also recorded: significant decrease in body weight
- body weight gain ([4]; mirtazapine sub-optimal dose 1 mg/kg and/or omega-3 0.72 g/kg, 1 mg/kg): does not interfere with the weight gain
- body weight gain ([4]; mirtazapine sub-optimal dose 1 mg/kg and/or omega-3 0.72 g/kg, listed as Mirtazapine, 1 mg/kg): did not produce any effect
